Laboratory results from the NIST ThermoML archive (doi:10.1021/je300252d).
± gives the expanded uncertainty stated by the source.

Test: mn = molality of the nth substance listed, in mol/kg
Details: 100 kPa, Liquid, Direct current cell with electrodes

`F[B-](F)(F)F.[Na+]` [sodium tetrafluoroborate] + CN(C)C=O gave a molar conductivity (283.15 K, m1 = 0.0001924) of 0.006693 ± 7.6e-06 S·m2/mol, a molar conductivity (283.15 K, m1 = 0.0003952) of 0.0066184 ± 6.4e-06 S·m2/mol and a molar conductivity (283.15 K, m1 = 0.0006451) of 0.0065533 ± 5.2e-06 S·m2/mol. It also gave a molar conductivity (283.15 K, m1 = 0.0008265) of 0.0065141 ± 4.1e-06 S·m2/mol, a molar conductivity (283.15 K, m1 = 0.001295) of 0.006434 ± 3.5e-06 S·m2/mol and a molar conductivity (283.15 K, m1 = 0.002093) of 0.0063285 ± 2.9e-06 S·m2/mol. It also gave a molar conductivity (283.15 K, m1 = 0.00309) of 0.0062291 ± 2.6e-06 S·m2/mol, a molar conductivity (283.15 K, m1 = 0.004094) of 0.0061456 ± 2.3e-06 S·m2/mol and a molar conductivity (283.15 K, m1 = 0.005982) of 0.0060221 ± 2.1e-06 S·m2/mol. The molar conductivity (283.15 K, m1 = 0.007983) was 0.0059166 ± 2e-06 S·m2/mol, the molar conductivity (283.15 K, m1 = 0.009964) was 0.005832 ± 1.9e-06 S·m2/mol and the molar conductivity (283.15 K, m1 = 0.01199) was 0.0057567 ± 1.8e-06 S·m2/mol. The molar conductivity (288.15 K, m1 = 0.0001674) was 0.007209 ± 8e-06 S·m2/mol, the molar conductivity (288.15 K, m1 = 0.000442) was 0.007102 ± 7.2e-06 S·m2/mol and the molar conductivity (288.15 K, m1 = 0.000627) was 0.0070513 ± 5.5e-06 S·m2/mol. For the same compound, the molar conductivity (288.15 K, m1 = 0.0007814) was 0.0070146 ± 4.4e-06 S·m2/mol, the molar conductivity (288.15 K, m1 = 0.001324) was 0.0069135 ± 3.7e-06 S·m2/mol and the molar conductivity (288.15 K, m1 = 0.002128) was 0.0067991 ± 3.1e-06 S·m2/mol. It also gave a molar conductivity (288.15 K, m1 = 0.003087) of 0.0066947 ± 2.7e-06 S·m2/mol, a molar conductivity (288.15 K, m1 = 0.00408) of 0.0066044 ± 2.4e-06 S·m2/mol and a molar conductivity (288.15 K, m1 = 0.006001) of 0.0064671 ± 2.2e-06 S·m2/mol. It also gave a molar conductivity (288.15 K, m1 = 0.007983) of 0.0063522 ± 2e-06 S·m2/mol, a molar conductivity (288.15 K, m1 = 0.009981) of 0.0062566 ± 1.9e-06 S·m2/mol and a molar conductivity (288.15 K, m1 = 0.01195) of 0.0061747 ± 1.9e-06 S·m2/mol. For the same compound, the molar conductivity (293.15 K, m1 = 0.0002336) was 0.007686 ± 8.6e-06 S·m2/mol, the molar conductivity (293.15 K, m1 = 0.0004583) was 0.0076005 ± 7.2e-06 S·m2/mol and the molar conductivity (293.15 K, m1 = 0.0006194) was 0.0075538 ± 5.7e-06 S·m2/mol. For the same compound, the molar conductivity (293.15 K, m1 = 0.0008218) was 0.0075029 ± 4.7e-06 S·m2/mol, the molar conductivity (293.15 K, m1 = 0.001262) was 0.0074142 ± 4e-06 S·m2/mol and the molar conductivity (293.15 K, m1 = 0.001996) was 0.0072971 ± 3.3e-06 S·m2/mol. It also gave a molar conductivity (293.15 K, m1 = 0.003085) of 0.0071656 ± 2.9e-06 S·m2/mol, a molar conductivity (293.15 K, m1 = 0.004073) of 0.0070679 ± 2.5e-06 S·m2/mol and a molar conductivity (293.15 K, m1 = 0.005971) of 0.0069203 ± 2.3e-06 S·m2/mol. It also gave a molar conductivity (293.15 K, m1 = 0.007974) of 0.0067931 ± 2.1e-06 S·m2/mol, a molar conductivity (293.15 K, m1 = 0.009986) of 0.0066867 ± 2e-06 S·m2/mol and a molar conductivity (293.15 K, m1 = 0.01198) of 0.0065964 ± 1.9e-06 S·m2/mol. The molar conductivity (298.15 K, m1 = 0.0001864) was 0.008228 ± 9.9e-06 S·m2/mol, the molar conductivity (298.15 K, m1 = 0.0003604) was 0.008147 ± 8.1e-06 S·m2/mol and the molar conductivity (298.15 K, m1 = 0.0005971) was 0.0080676 ± 6.4e-06 S·m2/mol. For the same compound, the molar conductivity (298.15 K, m1 = 0.000833) was 0.0080036 ± 5e-06 S·m2/mol, the molar conductivity (298.15 K, m1 = 0.001297) was 0.0079038 ± 4.1e-06 S·m2/mol and the molar conductivity (298.15 K, m1 = 0.002158) was 0.0077599 ± 3.5e-06 S·m2/mol. It also gave a molar conductivity (298.15 K, m1 = 0.00307) of 0.0076432 ± 3e-06 S·m2/mol, a molar conductivity (298.15 K, m1 = 0.004131) of 0.0075305 ± 2.6e-06 S·m2/mol and a molar conductivity (298.15 K, m1 = 0.005971) of 0.0073766 ± 2.4e-06 S·m2/mol. It also gave a molar conductivity (298.15 K, m1 = 0.007994) of 0.0072373 ± 2.2e-06 S·m2/mol, a molar conductivity (298.15 K, m1 = 0.009949) of 0.0071242 ± 2.1e-06 S·m2/mol and a molar conductivity (298.15 K, m1 = 0.01197) of 0.0070255 ± 2e-06 S·m2/mol.
